Experimental data as given in PubChem BioAssay (NCI).
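In this assay, cells in 96-well plates receive the compound at five concentrations for 48 hours. Endpoints are linearly interpolated between the surrounding concentrations. Abbreviation: GI50, concentration required for 50% inhibition of growth. TGI denotes the concentration required for complete inhibition of growth.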

How the values were obtained:
Experiment in all cases: inhibition of tumour cell growth, NCI panel, 48 h
K-562 leukemia = system: K-562 leukemia
TK-10 renal = system: TK-10 renal
SNB-75 CNS = system: SNB-75 CNS
HCT-116 colon = system: HCT-116 colon
SK-MEL-2 melanoma = system: SK-MEL-2 melanoma
MDA-MB-231 breast = system: MDA-MB-231 breast
HT29 colon = system: HT29 colon
MALME-3M melanoma = system: MALME-3M melanoma
MOLT-4 leukemia = system: MOLT-4 leukemia
MCF7 breast = system: MCF7 breast

SMILES	TGI (K-562 leukemia)	TGI (TK-10 renal)	TGI (SNB-75 CNS)	TGI (HCT-116 colon)	TGI (SK-MEL-2 melanoma)	TGI (MDA-MB-231 breast)	TGI (HT29 colon)	TGI (MALME-3M melanoma)	TGI (MOLT-4 leukemia)	TGI (MCF7 breast)	GI50 (K-562 leukemia)	GI50 (TK-10 renal)	GI50 (SNB-75 CNS)	GI50 (HCT-116 colon)	GI50 (SK-MEL-2 melanoma)	GI50 (MDA-MB-231 breast)	GI50 (HT29 colon)	GI50 (MALME-3M melanoma)	GI50 (MOLT-4 leukemia)	GI50 (MCF7 breast)
O=C(/C=C/c1cccc(Br)c1)N1CCN(CCOC(c2ccccc2)c2ccccc2)CC1	55 µM	> 100 µM	> 100 µM	> 100 µM	> 100 µM	> 100 µM	81.5 µM	> 100 µM	30.8 µM	> 100 µM	–	–	–	–	–	–	–	–	–	–
Cn1c(=S)[nH]c(N)c(Cc2ccccc2)c1=O	> 100 µM	> 100 µM	> 100 µM	> 100 µM	> 100 µM	> 100 µM	> 100 µM	> 100 µM	> 100 µM	> 100 µM	–	–	–	–	–	–	–	–	–	–
CC(=O)Oc1cc(-c2oc3cc(OC(C)=O)c(C4OC(CO)C(O)C(O)C4O)c(OC(C)=O)c3c(=O)c2O)c(OC(C)=O)cc1O (stereo not given)	> 100 µM	> 100 µM	> 100 µM	> 100 µM	> 100 µM	> 100 µM	> 100 µM	> 100 µM	> 100 µM	> 100 µM	–	–	–	–	–	–	–	–	–	–
c1cc(CSc2ncnc3nc[nH]c23)ccn1	> 100 µM	> 100 µM	> 100 µM	> 100 µM	> 100 µM	> 100 µM	> 100 µM	> 100 µM	> 100 µM	> 100 µM	–	–	–	–	–	–	–	–	–	–
OC(Cc1cc(CC(O)(C(F)(F)F)C(F)(F)F)nc(CC(O)(C(F)(F)F)C(F)(F)F)c1)(C(F)(F)F)C(F)(F)F	> 10 µM	> 10 µM	7.81 µM	2.76 µM	4.31 µM	3.68 µM	6.24 µM	7.96 µM	> 10 µM	9.06 µM	–	–	–	–	–	–	–	–	–	–
CC(C)CC1N=C(OCc2ccccc2)OC1=O (stereo not given)	> 100 µM	> 100 µM	> 100 µM	> 100 µM	> 100 µM	> 100 µM	> 100 µM	> 100 µM	> 100 µM	> 100 µM	–	–	–	–	–	–	–	–	–	–
Cc1c(C#N)c2nc3ccccc3n2c(=O)/c1=C/Nc1ccc(Cl)cc1	> 100 µM	35.7 µM	23.1 µM	> 100 µM	46.6 µM	77.9 µM	> 100 µM	> 100 µM	> 100 µM	> 100 µM	–	–	–	–	–	–	–	–	–	–
CC1(C)[C@H]2Cc3cc4nc5ccccn5c4cc3[C@@H]1C2	> 100 µM	33 µM	31.6 µM	33 µM	32 µM	27.1 µM	28.3 µM	25.7 µM	54.8 µM	17.8 µM	–	–	–	–	–	–	–	–	–	–
O=C1N[C@H](C(=O)O)[C@@H](c2ccc(OCc3ccccc3)cc2)O1	> 100 µM	84.4 µM	28 µM	> 100 µM	> 100 µM	51.4 µM	> 100 µM	> 100 µM	> 100 µM	> 100 µM	–	–	–	–	–	–	–	–	–	–
Cc1cc(=O)oc2c(C)c3oc(CBr)cc3cc12	46.7 µM	89.6 µM	47.4 µM	39.4 µM	54 µM	84.7 µM	79.9 µM	40.3 µM	54.3 µM	> 100 µM	–	–	–	–	–	–	–	–	–	–
C#CCNC(=O)CC[C@@H](C)[C@H]1CC[C@H]2[C@@H]3CC[C@@H]4CC(=O)CC[C@]4(C)[C@H]3CC[C@]12C	44.3 µM	44.5 µM	33.5 µM	52 µM	35.8 µM	38.9 µM	34.5 µM	31.7 µM	43.7 µM	52.7 µM	5.19 µM	18 µM	10.9 µM	12.9 µM	16.9 µM	16.5 µM	12.7 µM	14 µM	10.3 µM	12 µM
Cn1c(=O)cc(Nc2ccc(N)cc2)[nH]c1=O	> 100 µM	> 100 µM	> 100 µM	> 100 µM	> 100 µM	> 100 µM	> 100 µM	> 100 µM	> 100 µM	> 100 µM	–	–	–	–	–	–	–	–	–	–
CN1CCc2c(sc3ncn(Nc4ccc(F)cc4)c(=N)c23)C1	> 100 µM	> 100 µM	> 100 µM	> 100 µM	> 100 µM	> 100 µM	> 100 µM	> 100 µM	> 100 µM	> 100 µM	–	–	–	–	–	–	–	–	–	–
CC/C=C\C=C/C(=O)N/C=C/CCC	> 100 µM	> 100 µM	> 100 µM	> 100 µM	> 100 µM	> 100 µM	> 100 µM	> 100 µM	95.6 µM	> 100 µM	–	–	–	–	–	–	–	–	–	–
COc1cc(C(c2ccc3c(c2)OCO3)C2SCCCS2)cc(OC)c1OC (stereo not given)	4.73 µM	> 100 µM	5.83 µM	10.6 µM	> 100 µM	6.21 µM	3.42 µM	> 100 µM	8.29 µM	10.1 µM	–	–	–	–	–	–	–	–	–	–
CN1CCN(c2n[nH]c(=O)c3c2nnn3C2CCCCC2)CC1	> 100 µM	> 100 µM	> 100 µM	> 100 µM	> 100 µM	> 100 µM	> 100 µM	> 100 µM	> 100 µM	> 100 µM	–	–	–	–	–	–	–	–	–	–
Nc1ncnc2c1ccn2-c1cccc(NC(=O)c2ccc(N3CCOCC3)c(C(F)(F)F)c2)c1	16 µM	6.04 µM	9.02 µM	10.3 µM	5.1 µM	10.9 µM	12.3 µM	13.2 µM	20.1 µM	14.2 µM	2.41 µM	1.92 µM	1.31 µM	2.71 µM	1.83 µM	2.47 µM	3 µM	3.08 µM	3.05 µM	3.44 µM
CC(C)C(/C=C/c1ccc(Cl)cc1)=N\NC(=O)N/N=C(/C=C/c1ccc(Cl)cc1)C(C)C	> 100 µM	51.3 µM	39 µM	39 µM	59.8 µM	49.4 µM	> 100 µM	> 100 µM	> 100 µM	> 100 µM	–	–	–	–	–	–	–	–	–	–
Cc1cccc(N=N/C(=N\NC(=O)c2cc(Cl)ccc2O)c2ccc(N(CCC#N)CCC#N)cc2C)c1	67.3 µM	76.9 µM	> 100 µM	> 100 µM	> 100 µM	58.6 µM	74 µM	94.1 µM	39.9 µM	> 100 µM	–	–	–	–	–	–	–	–	–	–
CC(C)c1c(O[Si](C(C)C)(C(C)C)C(C)C)cc2c(c1O)CC[C@H]1C(C)(C)CCC[C@]21C	> 100 µM	> 100 µM	> 100 µM	> 100 µM	> 100 µM	> 100 µM	> 100 µM	> 100 µM	> 100 µM	> 100 µM	–	–	–	–	–	–	–	–	–	–
[O-][N+]1=C2CCC/C(=N/O)C2(O)C2CCCCC21N1CCOCC1 (stereo not given)	> 100 µM	> 100 µM	> 100 µM	> 100 µM	> 100 µM	> 100 µM	> 100 µM	> 100 µM	> 100 µM	> 100 µM	–	–	–	–	–	–	–	–	–	–
CC1(C)N([O-])[N+](=O)C1(C)O (stereo not given)	> 100 µM	> 100 µM	> 100 µM	> 100 µM	> 100 µM	> 100 µM	> 100 µM	> 100 µM	> 100 µM	> 100 µM	–	–	–	–	–	–	–	–	–	–
CC(C)C(=O)/C=C/c1c(Cl)cccc1Cl	> 100 µM	24.5 µM	8.38 µM	5.83 µM	7.99 µM	8.94 µM	11.2 µM	17.9 µM	> 100 µM	15.8 µM	–	–	–	–	–	–	–	–	–	–
c1ccc2c(c1)-c1ccccc1C2NC1=NCCO1	> 100 µM	83.6 µM	49.5 µM	32.1 µM	39.5 µM	56 µM	60.6 µM	27 µM	> 100 µM	60.8 µM	–	–	–	–	–	–	–	–	–	–
COc1ccc2nc3cc(Cl)ccc3c(NCCCCCC(=O)NC(COc3ccc4ccc5cccnc5c4n3)COc3ccc4ccc5cccnc5c4n3)c2c1	26.3 µM	32 µM	35.4 µM	23.5 µM	45.1 µM	36.2 µM	> 100 µM	> 100 µM	12.7 µM	15.1 µM	–	–	–	–	–	–	–	–	–	–
COc1cc(OC)c(/C=N\Nc2nc3ccccc3c(=O)n2-c2ccccc2)c(OC)c1	> 100 µM	> 66 µM	> 100 µM	40.6 µM	64 µM	65.5 µM	54.3 µM	79.3 µM	77.1 µM	> 73.8 µM	–	–	–	–	–	–	–	–	–	–
Cn1c(=O)c2c(=O)cc(N)[nH]c2n(C)c1=O	> 100 µM	> 100 µM	> 100 µM	> 100 µM	> 100 µM	> 100 µM	> 100 µM	> 100 µM	> 100 µM	> 100 µM	–	–	–	–	–	–	–	–	–	–
C=C(C)CCC(O)[C@](C)(O)[C@H]1[C@H](O)C[C@@]2(C)[C@@H]3CCc4c(cc(OC5OC(CO)C(O)C(O)C5O)c(O)c4C)C3(C)C(=O)C[C@]12C (stereo not given in full)	> 100 µM	> 100 µM	> 100 µM	> 100 µM	> 100 µM	> 100 µM	> 100 µM	> 100 µM	> 100 µM	> 100 µM	–	–	–	–	–	–	–	–	–	–
O=C(OCC(OC(=O)c1ccccc1)C1CC(C2(O)CCCCC2)C(=O)O1)c1ccccc1 (stereo not given)	> 25 µM	> 25 µM	> 25 µM	> 25 µM	> 25 µM	> 25 µM	> 25 µM	> 25 µM	19.1 µM	> 25 µM	–	–	–	–	–	–	–	–	–	–
